“And” between values parts separate entries of the source, which are not always exact repeats. Equal entries are not always repeated.
Molecular target: Short transient receptor potential channel 6 (Mus musculus) (UniProt Q61143)
Experiment: TRPC6 inhibitor potency, dose response, cell-based, mouse TRPC6, HEK293, membrane potential (AID 2696)
Conditions: TRPC6-expressing HEK293 cells, membrane potential dye fluorescence, acetylcholine-stimulated

Sequence of Short transient receptor potential channel 6 (Mus musculus) (Q61143 whole entry, looked up): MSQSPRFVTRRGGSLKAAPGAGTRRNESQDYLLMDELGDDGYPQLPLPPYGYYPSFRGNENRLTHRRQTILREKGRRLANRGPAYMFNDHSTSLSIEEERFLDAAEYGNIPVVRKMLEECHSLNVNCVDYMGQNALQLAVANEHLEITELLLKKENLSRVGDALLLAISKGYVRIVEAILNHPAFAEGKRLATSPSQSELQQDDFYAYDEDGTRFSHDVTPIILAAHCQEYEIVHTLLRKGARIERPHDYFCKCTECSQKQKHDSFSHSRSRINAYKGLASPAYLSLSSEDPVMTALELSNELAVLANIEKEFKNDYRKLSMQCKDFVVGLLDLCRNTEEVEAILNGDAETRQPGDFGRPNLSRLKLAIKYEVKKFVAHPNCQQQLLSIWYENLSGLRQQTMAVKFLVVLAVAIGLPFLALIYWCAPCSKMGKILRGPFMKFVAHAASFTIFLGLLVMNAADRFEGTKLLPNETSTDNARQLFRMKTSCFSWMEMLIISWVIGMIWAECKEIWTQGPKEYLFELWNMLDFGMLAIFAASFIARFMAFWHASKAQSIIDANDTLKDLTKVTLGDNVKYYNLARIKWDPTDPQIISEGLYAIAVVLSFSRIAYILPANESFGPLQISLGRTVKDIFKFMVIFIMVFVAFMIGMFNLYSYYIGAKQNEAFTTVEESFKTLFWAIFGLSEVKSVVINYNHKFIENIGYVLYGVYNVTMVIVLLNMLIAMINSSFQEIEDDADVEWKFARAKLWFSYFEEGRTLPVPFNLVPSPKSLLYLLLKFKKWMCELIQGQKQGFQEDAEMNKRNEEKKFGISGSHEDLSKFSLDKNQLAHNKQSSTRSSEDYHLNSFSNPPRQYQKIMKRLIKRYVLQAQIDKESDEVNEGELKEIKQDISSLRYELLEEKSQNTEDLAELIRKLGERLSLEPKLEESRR

`CCN1CCN(c2nc3ccccc3nc2C(C#N)C(=O)OCc2ccccc2)CC1` (centres undefined) and `O=C(CSc1ncccn1)N1CCN(C(c2ccccc2)c2ccccc2)CC1` are within 1.5-fold of each other in IC50: 70.8 µM for the first, 50.1 µM for the second.

Compared with `O=C(OCCN1CCCCC1)C1(c2ccccc2)CCCC1`, `Cc1c(C(=O)OCCN2CCCCC2)oc2ccccc12` is 2.8-fold higher in IC50: 8.91 µM for the first, 25.1 µM for the second. The first is the more potent here.

`Cc1cccc2sc(N(CCCN(C)C)C(=O)c3ccco3)nc12` and `Cc1cc(C)c2sc(N(CCCN(C)C)C(=O)c3ccc(Br)s3)nc2c1` are within 1.5-fold of each other in IC50: 70.8 µM for the first, 63.1 µM for the second.

`COC(=O)c1ccc(CN2CCN(C3CCCC3)C(CCO)C2)cc1` (centres undefined) and `COC(=O)c1[nH]c2ccc(Br)cc2c1NC(=O)CN1CCN(C2CCCCC2)CC1` are within 1.5-fold of each other in IC50: 35.5 µM for the first, 44.7 µM for the second.

Going from `Cc1ccc2c(c1)NC(=O)C(CC(=O)Nc1ccc(CN3CCC(C)CC3)cc1)O2` (centres undefined) to `CCC(C)N(CCNC(=O)CC1Oc2ccc(C)cc2NC1=O)C1CCCCC1` (centres undefined), the IC50 rises from 3.98 µM to 15.8 µM (4-fold). The first is the more potent here.

`Cc1cccc[n+]1CC(=O)N1c2ccccc2Sc2ccccc21` and `c1ccc(Cn2c(-c3ccccc3)c[n+]3c2SCCC3)cc1` are within 1.5-fold of each other in IC50: 4.47 µM for the first, 3.98 µM for the second.

First: Cc1cc(C)n(-c2nc(NCCCN(C)C)c3c4c(sc3n2)CCCC4)n1
Second: Cc1cccc(-c2nc(NCCCN(C)C)c3ccccc3n2)c1
The IC50 of the first is 1.6-fold lower: 44.7 µM for the first, 70.8 µM for the second. The first is the more potent here.

Compared with `CC[n+]1c(/C=C/Nc2ccccc2)sc2ccccc21`, `CN(C)CCn1c(C(=O)Nc2ccccc2)cc2ccccc21` is 2-fold lower in IC50: 79.4 µM for the first, 39.8 µM for the second. The second is the more potent here.

`Nc1c2c(nc3ccn(Cc4ccccc4)c(=O)c13)CCC2` and `CCn1c2c(c(=N)c3ccccc31)CCC2` are within 1.5-fold of each other in IC50: 70.8 µM for the first, 50.1 µM for the second.

Going from `COc1ccc(C(=O)C2CCCN(Cc3cccn3-c3ccccn3)C2)cc1F` (centres undefined) to `OC(C#CCCN1CCCCC1)(c1ccccc1)c1ccccc1`, the IC50 falls from 79.4 µM to 39.8 µM (2-fold).

First: CCN(CC)CCn1c(NC(=O)c2ccccc2O)nc2ccccc21
Second: CCN(CC)CCCOC(=O)C(OC(C)C)(c1ccccc1)c1ccccc1
The IC50 of the first is 7.9-fold higher: 31.6 µM for the first, 3.98 µM for the second.

Compared with `Cn1c2c(c(=O)n(C)c1=O)C(C(F)(F)F)(C(F)(F)F)N=C(c1ccc(Cl)cc1)N2`, `NCCCn1c(C(=O)c2ccc(Cl)cc2)c2ccc(C(F)(F)F)cc2[n+]1[O-]` is 5.6-fold higher in IC50: 7.94 µM for the first, 44.7 µM for the second. The first is the more potent here.

`O=C(Nc1ccccc1)Nc1ncc([N+](=O)[O-])s1` and `Cc1cc(Nc2cccc([N+](=O)[O-])c2)c2cccc(C)c2n1` are within 1.5-fold of each other in IC50: 35.5 µM for the first, 44.7 µM for the second.

First: CN(CC#CC(O)(c1ccccc1)c1ccccc1)C(C)(C)C
Second: CN(C)C(C)(C)C#CC(O)(c1ccccc1)c1ccccc1
The IC50 of the first is 3.2-fold lower: 12.6 µM for the first, 39.8 µM for the second. The first is the more potent here.

`Cc1ccc(C(OCC(C)(C)C[N+](C)(C)C)c2ccccc2)cc1` (centres undefined) and `COc1ccc2ccccc2c1CNCc1ccc(C)cc1` are the same in IC50: 44.7 µM for the first, 44.7 µM for the second.

`CCCCCCn1c2c(c(=N)c3c1CCC3)CCC2` and `Cc1ccc(OCCCCCCN2CCNCC2)c(Br)c1` are the same in IC50: 79.4 µM for the first, 79.4 µM for the second.

Compared with `CC(C)(C)c1ccc(OCCCCCCN2CCNCC2)cc1`, `Cc1ccc(C)c(NC(=O)C(NCC(C)(C)N2CCOCC2)c2ccccc2)c1` (centres undefined) is 2-fold lower in IC50: 50.1 µM for the first, 25.1 µM for the second.

First: Cc1cc(C)c2nc(C)cc(Nc3ccc(C(=O)N4CCOCC4)cc3)c2c1
Second: CN(C)c1cc(NC(=O)CN2CCCC2)c2ccccc2n1
The IC50 of the first is 1.8-fold higher: 79.4 µM for the first, 44.7 µM for the second. The second is the more potent here.

`Cc1cccc(C(=O)NNC2=C(C(=O)C(F)(F)F)CCC2)c1O` and `CCCCNC(=O)c1cc2c(=O)n3cccc(C)c3nc2n(Cc2ccncc2)c1=N` are the same in IC50: 44.7 µM for the first, 44.7 µM for the second.

Going from `CCCC(CCC)C(=O)OC[N+](C)(C)CCOC(=O)C(O)(c1ccccc1)C1CCCC1` (centres undefined) to `CN1CCCN=C1COC(=O)C(O)(c1ccccc1)C1CCCCC1` (centres undefined), the IC50 falls from 1.78 µM to 0.05 µM (36-fold). The second is the more potent here.

`CCCC[n+]1ccc(-c2nc3ccc([N+](=O)[O-])cc3[nH]2)cc1` and `Nc1nc(Nc2cccc(F)c2)nc2ccccc12` are within 1.5-fold of each other in IC50: 56.2 µM for the first, 39.8 µM for the second.

Compared with `CCCc1cc(-c2[nH]ncc2-c2ccc3c(c2)OCCCO3)c(O)cc1O`, `CCOC(=O)N1CCN(Cc2nc(-c3ccc(Cl)cc3)no2)CC1` is 1.6-fold higher in IC50: 50.1 µM for the first, 79.4 µM for the second. The first is the more potent here.

`CC(C)NCC(O)Cn1c2c(c3ccccc31)CCc1c-2cnn1-c1ccccc1` (centres undefined) and `Cc1c(CCCN)c2ccccc2n1Cc1ccccc1` are within 1.5-fold of each other in IC50: 79.4 µM for the first, 70.8 µM for the second.

First: CCCn1c(=N)n(CC(=O)c2ccc(Cl)cc2)c2ccccc21
Second: CC(C)(C)c1ccc(Cn2c(=N)n(CC(O)c3ccco3)c3ccccc32)cc1 (centres undefined)
The IC50 of the first is 1.6-fold higher: 70.8 µM for the first, 44.7 µM for the second.

`CC(C)c1ccc(N2C(=O)CC(Sc3nc4ccccc4o3)C2=O)cc1` (centres undefined) and `Brc1ccc(-c2c[n+]3c(n2-c2ccccc2)SCC3)cc1` are within 1.5-fold of each other in IC50: 44.7 µM for the first, 50.1 µM for the second.

First: OC(C#CCN1CCCCCC1)(c1ccccc1)c1cccnc1 (centres undefined)
Second: C[N+]1(CC#CC(O)(c2ccccc2)c2ccccc2)CCCC1
The IC50 of the first is 18-fold higher: 39.8 µM for the first, 2.24 µM for the second. The second is the more potent here.

`O=C(c1ccccc1)N1CCN(C2C3CC4CC(C3)CC2C4)CC1` (centres undefined) and `COc1ccc(CCC(C)NC2C3CC4CC(C3)CC2C4)cc1` (centres undefined) are the same in IC50: 44.7 µM for the first, 44.7 µM for the second.

`Cc1ccc(C23CC4CC(CC(CN)(C4)C2)C3)cc1` and `Cc1ccc(SC(=O)c2c([N+](=O)[O-])c(C)nn2C)cc1` are within 1.5-fold of each other in IC50: 39.8 µM for the first, 35.5 µM for the second.

First: COc1ccccc1OCCNCC(O)COc1cccc2[nH]c3ccccc3c12 (centres undefined)
Second: C[N+]1(C)CCCC(OC(=O)C(O)(c2ccccc2)c2ccccc2)C1 (centres undefined)
The IC50 of the first is 50-fold higher: 44.7 µM for the first, 0.89 µM for the second.

`Cc1nc2c(o1)CCc1ccccc1C2N1CCN(C)CC1` (centres undefined) was tested, and the IC50 was 0.79 µM and 3.16 µM.
